Calls of active or inactive are those of the source. No cut-off for these calls is given here.
Tests used:
[1] = Suppression of high glucose-induced extracellular matrix accumulation in human glomerular mesangial cells assessed as laminin level at 10 uM by ELISA (reference value: 183.8 +/- 9.3 %); type: functional; conditions: Glomerular mesangial cell
[2] = Suppression of high glucose-induced extracellular matrix accumulation in human glomerular mesangial cells assessed as collagen 4 level at 0.1 uM by ELISA (reference value: 221.7 +/- 14.1 %); type: functional; conditions: Glomerular mesangial cell
[3] = molecular target: Kelch-like ECH-associated protein 1 (Homo sapiens) (UniProt Q14145); test: Binding affinity to Keap1 in human glomerular mesangial cells assessed as disruption of Keap1-Nrf2 complex formation causing decrease in Keap1 level at 10 uM measured after overnight by co-immunoprecipitation analysis; type: tissue-based; conditions: Glomerular mesangial cell, filed as activator, time 12.0 hrs
Sequence of Kelch-like ECH-associated protein 1 (Homo sapiens) (Q14145 whole entry): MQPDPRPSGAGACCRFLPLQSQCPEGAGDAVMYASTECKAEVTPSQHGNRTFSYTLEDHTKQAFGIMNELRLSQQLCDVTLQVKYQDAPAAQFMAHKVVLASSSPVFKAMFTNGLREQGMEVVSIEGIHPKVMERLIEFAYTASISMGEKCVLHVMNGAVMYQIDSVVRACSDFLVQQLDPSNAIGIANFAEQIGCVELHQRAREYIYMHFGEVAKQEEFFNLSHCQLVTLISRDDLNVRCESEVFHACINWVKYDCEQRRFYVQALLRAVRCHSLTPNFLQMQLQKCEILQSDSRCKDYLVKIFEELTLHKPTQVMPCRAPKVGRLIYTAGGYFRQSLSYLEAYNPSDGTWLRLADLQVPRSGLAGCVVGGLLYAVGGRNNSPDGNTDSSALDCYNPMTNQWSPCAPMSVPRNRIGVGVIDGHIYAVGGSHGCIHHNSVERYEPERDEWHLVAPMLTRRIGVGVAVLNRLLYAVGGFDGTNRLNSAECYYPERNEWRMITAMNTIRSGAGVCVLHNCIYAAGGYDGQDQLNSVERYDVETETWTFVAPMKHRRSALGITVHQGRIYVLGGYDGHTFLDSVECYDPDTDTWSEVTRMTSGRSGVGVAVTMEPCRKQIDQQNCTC

[4] = Antioxidant activity against high glucose-induced oxidative stress in human glomerular mesangial cells assessed as effect on CAT activity at 0.1 uM by colorimetric assay relative to control; type: functional, Glomerular mesangial cell
[5] = system: Glomerular mesangial cell; test: Effect on high glucose-induced oxidative stress in human glomerular mesangial cells transfected with Nrf2-siRNA assessed as decrease in intracellular ROS level at 10 uM; type: functional, tissue-based
[6] = Suppression of high glucose-induced extracellular matrix accumulation in human glomerular mesangial cells assessed as effect on CTGF secretion at 10 uM by ELISA (reference value: 267.7 +/- 21.3 %); type: functional; conditions: Glomerular mesangial cell
[7] = system: Glomerular mesangial cell; test: Suppression of high glucose-induced extracellular matrix accumulation in human glomerular mesangial cells assessed as reduction in fibronectin level by ELISA; type: functional, tissue-based; conditions: dose microM 0.1-10
[8] = Antioxidant activity against high glucose-induced oxidative stress in human glomerular mesangial cells assessed as effect on SOD activity at 1 uM by colorimetric assay relative to control; type: functional, Glomerular mesangial cell
[9] = system: Glomerular mesangial cell; test: Effect on high glucose-induced extracellular matrix accumulation in human glomerular mesangial cells transfected with Nrf2-siRNA assessed as decrease in laminin level at 10 uM; type: functional, tissue-based
[10] = molecular target: T1, Nuclear factor erythroid 2-related factor 2 (Homo sapiens) (UniProt Q16236); test: Activation of Nrf2 in human glomerular mesangial cells transfected with ARE luciferase reporter plasmid assessed as increase in ARE luciferase activity at 0.1 to 10 uM under high glucose condition by dual luciferase reporter gene assay; conditions: Glomerular mesangial cell, filed as activator, dose microM 0.1-10
T1 sequence (whole entry): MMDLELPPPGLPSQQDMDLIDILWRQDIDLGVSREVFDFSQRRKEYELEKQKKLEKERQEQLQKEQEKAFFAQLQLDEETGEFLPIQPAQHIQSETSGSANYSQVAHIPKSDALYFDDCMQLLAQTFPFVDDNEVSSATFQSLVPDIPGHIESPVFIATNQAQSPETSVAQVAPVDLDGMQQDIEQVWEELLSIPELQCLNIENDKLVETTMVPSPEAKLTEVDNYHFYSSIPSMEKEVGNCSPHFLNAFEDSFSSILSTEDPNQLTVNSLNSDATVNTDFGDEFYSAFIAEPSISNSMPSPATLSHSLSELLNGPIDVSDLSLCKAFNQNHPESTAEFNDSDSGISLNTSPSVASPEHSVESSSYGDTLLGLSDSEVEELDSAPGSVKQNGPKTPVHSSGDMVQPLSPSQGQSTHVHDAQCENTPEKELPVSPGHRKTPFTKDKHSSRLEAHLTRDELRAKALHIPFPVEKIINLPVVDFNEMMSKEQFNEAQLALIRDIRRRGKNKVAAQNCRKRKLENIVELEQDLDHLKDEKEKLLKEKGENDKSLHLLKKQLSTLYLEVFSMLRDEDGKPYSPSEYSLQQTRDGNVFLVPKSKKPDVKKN

[11] = Suppression of high glucose-induced extracellular matrix accumulation in human glomerular mesangial cells assessed as laminin level at 1 uM by ELISA (reference value: 183.8 +/- 9.3 %); type: functional; conditions: Glomerular mesangial cell
[12] = Suppression of high glucose-induced extracellular matrix accumulation in human glomerular mesangial cells assessed as fibronectin level at 1 uM by ELISA (reference value: 319.6 +/- 12.4 %); type: functional; conditions: Glomerular mesangial cell
[13] = Antioxidant activity against high glucose-induced oxidative stress in human glomerular mesangial cells assessed as effect on intracellular ROS level at 1 uM after 20 mins by DCFH-DA staining based fluorescence assay (reference value: 361 +/- 16.7 %); type: functional, Glomerular mesangial cell
[14] = system: Glomerular mesangial cell; test: Effect on high glucose-induced oxidative stress in human glomerular mesangial cells transfected with Nrf2-siRNA assessed as decrease in intracellular MDA level at 10 uM; type: functional
[15] = Suppression of high glucose-induced extracellular matrix accumulation in human glomerular mesangial cells assessed as fibronectin level at 0.1 uM by ELISA (reference value: 319.6 +/- 12.4 %); type: functional; conditions: Glomerular mesangial cell
[16] = system: Glomerular mesangial cell; test: Effect on high glucose-induced extracellular matrix accumulation in human glomerular mesangial cells transfected with Nrf2-siRNA assessed as decrease in collagen 4 level at 10 uM; type: functional, tissue-based
[17] = Antioxidant activity against high glucose-induced oxidative stress in human glomerular mesangial cells assessed as effect on intracellular ROS level at 10 uM after 20 mins by DCFH-DA staining based fluorescence assay (reference value: 361 +/- 16.7 %); type: functional, Glomerular mesangial cell
[18] = system: Glomerular mesangial cell; test: Increase in total Nrf2 expression in human glomerular mesangial cells at 10 uM under high glucose condition by Western blot analysis; type: functional, tissue-based; conditions: dose microM 0.1-10
[19] = Antioxidant activity against high glucose-induced oxidative stress in human glomerular mesangial cells assessed as effect on intracellular ROS level at 0.1 uM after 20 mins by DCFH-DA staining based fluorescence assay (reference value: 361 +/- 16.7 %); type: functional, Glomerular mesangial cell
[20] = Antioxidant activity against high glucose-induced oxidative stress in human glomerular mesangial cells assessed as effect on intracellular MDA level at 0.1 uM after 10 mins by thiobarbituric acid based absorbance analysis (reference value: 216 +/- 17.3 %); type: functional, Glomerular mesangial cell
[21] = Antioxidant activity against high glucose-induced oxidative stress in human glomerular mesangial cells assessed as effect on intracellular MDA level at 1 uM after 10 mins by thiobarbituric acid based absorbance analysis (reference value: 216 +/- 17.3 %); type: functional, Glomerular mesangial cell
[22] = Suppression of high glucose-induced extracellular matrix accumulation in human glomerular mesangial cells assessed as collagen 4 level at 10 uM by ELISA (reference value: 221.7 +/- 14.1 %); type: functional; conditions: Glomerular mesangial cell
[23] = Antioxidant activity against high glucose-induced oxidative stress in human glomerular mesangial cells assessed as effect on SOD activity at 10 uM by colorimetric assay relative to control; type: functional, Glomerular mesangial cell
[24] = Suppression of high glucose-induced extracellular matrix accumulation in human glomerular mesangial cells assessed as laminin level at 0.1 uM by ELISA (reference value: 183.8 +/- 9.3 %); type: functional; conditions: Glomerular mesangial cell
[25] = system: Glomerular mesangial cell; test: Suppression of high glucose-induced extracellular matrix accumulation in human glomerular mesangial cells assessed as reduction in laminin level by ELISA; type: functional, tissue-based; conditions: dose microM 0.1-10
[26] = Antioxidant activity against high glucose-induced oxidative stress in human glomerular mesangial cells assessed as effect on CAT activity at 1 uM by colorimetric assay relative to control; type: functional, Glomerular mesangial cell
[27] = Suppression of high glucose-induced extracellular matrix accumulation in human glomerular mesangial cells assessed as effect on TGFbeta1 secretion at 1 uM by ELISA (reference value: 312.7 +/- 18.2 %); type: functional; conditions: Glomerular mesangial cell
[28] = molecular target: T1, Nuclear factor erythroid 2-related factor 2 (Homo sapiens); test: Activation of Nrf2 in human glomerular mesangial cells assessed as increase in nuclear Nrf2 expression at 0.1 to 10 uM under high glucose condition by Western blot analysis; conditions: Glomerular mesangial cell, filed as activator, dose microM 0.1-10
[29] = Suppression of high glucose-induced extracellular matrix accumulation in human glomerular mesangial cells assessed as effect on TGFbeta1 secretion at 10 uM by ELISA (reference value: 312.7 +/- 18.2 %); type: functional; conditions: Glomerular mesangial cell
[30] = Suppression of high glucose-induced extracellular matrix accumulation in human glomerular mesangial cells assessed as collagen 4 level at 1 uM by ELISA (reference value: 221.7 +/- 14.1 %); type: functional; conditions: Glomerular mesangial cell
[31] = molecular target: T1, Nuclear factor erythroid 2-related factor 2 (Homo sapiens); test: Activation of Nrf2 in human glomerular mesangial cells assessed as translocation of Nrf2 from cytoplasm to nucleus at 0.1 to 10 uM under high glucose condition by DAPI staining based fluorescence microscopy analysis; type: tissue-based; conditions: Glomerular mesangial cell, filed as activator, dose microM 0.1-10
[32] = molecular target: T1, Nuclear factor erythroid 2-related factor 2 (Homo sapiens); test: Activation of Nrf2 in human glomerular mesangial cells assessed as increase in Nrf2 level at 0.1 to 10 uM under high glucose condition; type: tissue-based; conditions: Glomerular mesangial cell, filed as activator, dose microM 0.1-10
[33] = system: Glomerular mesangial cell; test: Suppression of high glucose-induced extracellular matrix accumulation in human glomerular mesangial cells assessed as decrease in CTGF secretion by ELISA; type: functional, tissue-based; conditions: dose microM 0.1-10
[34] = Antioxidant activity against high glucose-induced oxidative stress in human glomerular mesangial cells assessed as effect on intracellular MDA level at 10 uM after 10 mins by thiobarbituric acid based absorbance analysis (reference value: 216 +/- 17.3 %); type: functional, Glomerular mesangial cell
[35] = Suppression of high glucose-induced extracellular matrix accumulation in human glomerular mesangial cells assessed as fibronectin level at 10 uM by ELISA (reference value: 319.6 +/- 12.4 %); type: functional; conditions: Glomerular mesangial cell
[36] = system: Glomerular mesangial cell; test: Cytoprotective activity against high glucose-induced decreased cell viability in human glomerular mesangial cells at 0.1 uM after 1 hr by CCK8 assay; type: functional, tissue-based
[37] = Cytotoxicity against human glomerular mesangial cells assessed as effect on cell viability at 400 uM after 1 hr by CCK8 assay; type: cell-based
[38] = system: Glomerular mesangial cell; test: Suppression of high glucose-induced extracellular matrix accumulation in human glomerular mesangial cells assessed as decrease in TGFbeta1 secretion by ELISA; type: functional, tissue-based; conditions: dose microM 0.1-10
[39] = Suppression of high glucose-induced extracellular matrix accumulation in human glomerular mesangial cells assessed as effect on TGFbeta1 secretion at 0.1 uM by ELISA (reference value: 312.7 +/- 18.2 %); type: functional; conditions: Glomerular mesangial cell
[40] = Antioxidant activity against high glucose-induced oxidative stress in human glomerular mesangial cells assessed as effect on CAT activity at 10 uM by colorimetric assay relative to control; type: functional, Glomerular mesangial cell
[41] = system: Glomerular mesangial cell; test: Suppression of high glucose-induced extracellular matrix accumulation in human glomerular mesangial cells assessed as reduction in collagen 4 level by ELISA; type: functional, tissue-based; conditions: dose microM 0.1-10
[42] = Antioxidant activity against high glucose-induced oxidative stress in human glomerular mesangial cells assessed as effect on SOD activity at 0.1 uM by colorimetric assay relative to control; type: functional, Glomerular mesangial cell
[43] = system: Glomerular mesangial cell; test: Cytoprotective activity against high glucose-induced self-limited proliferation in human glomerular mesangial cells at 0.1 to 10 uM measured after 3 hrs under high glucose condition by BrdU incorporation assay; type: functional, tissue-based; conditions: dose microM 0.1-10, time 3.0 hrs
[44] = system: Glomerular mesangial cell; test: Effect on high glucose-induced extracellular matrix accumulation in human glomerular mesangial cells transfected with Nrf2-siRNA assessed as decrease in fibronectin level at 10 uM; type: functional, tissue-based

O=C(O)/C=C/c1cc(OC(=O)/C=C/c2ccc(O[C@@H]3O[C@H](CO)[C@@H](O)[C@H](O)[C@H]3O)cc2)cc(O[C@@H]2O[C@H](CO)[C@@H](O)[C@H](O)[C@H]2O)c1
level, % of control at 10 µM [1]: 124% | level, % of control at 0.1 µM [2]: 193% | Activity [3]: Active | Activity [4]: 144.6% | Activity [5]: inactive | level, % of control at 10 µM [6]: 119% | inhibition [7]: Dose-dependent effect | Activity [8]: 229.2% | Activity [9]: inactive | Activity [10]: Active | level, % of control at 1 µM [11]: 148% | level, % of control at 1 µM [12]: 246% | Activity [13]: 287.2% | Activity [14]: inactive | level, % of control at 0.1 µM [15]: 282% | Activity [16]: inactive | Activity [17]: 190.8% | Activity [18]: Active | Activity [19]: 323% | Activity [20]: 183.9% | Activity [21]: 163.7% | level, % of control at 10 µM [22]: 129% | Activity [23]: 306.3% | level, % of control at 0.1 µM [24]: 163% | inhibition [25]: Dose-dependent effect | Activity [26]: 188.5% | level, % of control at 1 µM [27]: 213% | Activity [28]: Active | level, % of control at 10 µM [29]: 140% | level, % of control at 1 µM [30]: 163% | Activity [31]: Active | Activity [32]: Active | inhibition [33]: Dose-dependent effect | Activity [34]: 135.9% | level, % of control at 10 µM [35]: 179% | Activity [36]: Active | Activity [37]: Non-Toxic | inhibition [38]: Dose-dependent effect | level, % of control at 0.1 µM [39]: 262% | Activity [40]: 233.4% | inhibition [41]: Dose-dependent effect | Activity [42]: 155.7% | Activity [43]: Active | Activity [44]: inactive
